This assay has as its target T1, FXR (CMX-hFXR) (Homo sapiens, UniProt Q96RI1).
T1 construct: expressed in transfected cells; host or cells: CV-1 African Green Monkey Kidney cells
T1 sequence (Q96RI1 1-472 isoform Q96RI1-2): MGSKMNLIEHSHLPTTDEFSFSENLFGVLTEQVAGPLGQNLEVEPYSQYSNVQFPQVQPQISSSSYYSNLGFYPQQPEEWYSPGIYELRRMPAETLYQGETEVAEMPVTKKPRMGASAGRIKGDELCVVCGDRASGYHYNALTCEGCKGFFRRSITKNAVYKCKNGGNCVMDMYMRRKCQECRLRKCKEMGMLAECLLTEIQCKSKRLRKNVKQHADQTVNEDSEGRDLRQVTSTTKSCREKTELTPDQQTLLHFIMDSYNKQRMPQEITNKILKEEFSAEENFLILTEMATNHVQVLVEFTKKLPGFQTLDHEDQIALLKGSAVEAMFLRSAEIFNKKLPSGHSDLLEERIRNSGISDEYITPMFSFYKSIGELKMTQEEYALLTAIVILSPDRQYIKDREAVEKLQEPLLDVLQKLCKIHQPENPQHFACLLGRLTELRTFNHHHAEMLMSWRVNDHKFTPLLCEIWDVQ
T1 sequence (P19793 1-462 partner): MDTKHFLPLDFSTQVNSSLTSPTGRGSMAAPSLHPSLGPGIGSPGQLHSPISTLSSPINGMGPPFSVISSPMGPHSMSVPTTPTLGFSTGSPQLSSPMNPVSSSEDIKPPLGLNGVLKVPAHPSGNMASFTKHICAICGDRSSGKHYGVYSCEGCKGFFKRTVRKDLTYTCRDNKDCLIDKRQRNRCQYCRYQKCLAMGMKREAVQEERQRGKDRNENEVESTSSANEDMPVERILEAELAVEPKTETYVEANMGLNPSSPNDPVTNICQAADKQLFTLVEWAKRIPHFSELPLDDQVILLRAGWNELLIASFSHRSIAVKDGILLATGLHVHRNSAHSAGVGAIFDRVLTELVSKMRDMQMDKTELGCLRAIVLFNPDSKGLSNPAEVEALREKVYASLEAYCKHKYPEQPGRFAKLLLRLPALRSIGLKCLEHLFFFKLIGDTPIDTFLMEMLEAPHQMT
In words: FXR co-transfection assay (FXR/ECREx7). Format: cell-based. The settings on record: for EC50: CV-1 cells, agonist mode; for Emax: relative to maximum response of chenodeoxycholic acid (CDCA), read-out: % efficacy. The protocol:
The basic co-transfection protocol for measuring FXR activity is as follows. CV-1 African Green Monkey Kidney cells are plated 24 hours before transfection to achieve approximately 70-80 percent confluency. Cells are transfected with CMX-hFXR, CMX-RXRα, Luc12 reporter (ECREx7-Tk-Luciferase), and a CMX-β-Galactosidase expression vector (See WO 00/76523). The transfection reagent used is DOTAP (Boehringer Mannheim). Cells are incubated with the DOTAP/DNA mixture for 5 hours after which the cells are harvested and plated onto either 96 well or 384 well plates containing the appropriate concentration of test compound. The assay is allowed to continue for an additional 18-20 hours, after which the cells are lysed, with lysis buffer (1% triton X 100, 10% glycerol, 5 mM Dithiothreitol, 1 mM EGTA, 25 mM Tricine, pH 7.8) and the luciferase activity is measured in the presence of Luciferase assay buffer (0.73 mM ATP, 22.3 mM Tricine, 0.11 mM EGTA, 0.55 mM Luciferin, 0.15 mM Coenzyme A, 0.5 mM HEPES, 10 mM Magnesium sulphate) on a standard luminometer plate reader (PE Biosystems, NorthStar Reader).
Both the FXR/ECREx7 co-transfection assay (Example 15) and the TR-FRET assay (Example 16) can be used to establish the EC50/IC50 values for potency and percent activity or inhibition for efficacy. Efficacy defines the activity of a compound relative to a high control (chenodeoxycholic acid, CDCA) or a low control (DMSO/vehicle). The dose response curves are generated from an 8 point curve with concentrations differing by 1/2 LOG units. Each point represents the average of 4 wells of data from a 384 well plate. The curve for the data is generated by using the equation: Y=Bottom+(Top−Bottom)/(1+10^((Log EC50−X)*HillSlope))
The EC50/IC50 is therefore defined as the concentration at which an agonist or antagonist elicits a response that is half way between the Top (maximum) and Bottom (baseline) values. The EC50/IC50 values represented are the averages of at least 3 independent experiments. The determination of the relative efficacy or % control for an agonist is by comparison to the maximum response achieved by chenodeoxycholic acid that is measured individually in each dose response experiment.
For the antagonist assay, CDCA is added to each well of a 384 well plate to elicit a response. The % inhibition for each antagonist is therefore a measurement of the inhibition of the activity of CDCA. In this example, 100% inhibition would indicate that the activity of CDCA has been reduced to baseline levels, defined as the activity of the assay in the presence of DMSO only.

Each structure is given as a SMILES string.

A word on the EC50: it is the concentration that produces a half-maximal response. Low readings indicate a more potent agent, high ones a less potent agent. On to `COc1ccc(-n2c(C(C)N(C)S(=O)(=O)c3ccc(C(C)(C)C)cc3)nc3ccc(OC)cc3c2=O)cc1` (stereo not shown) [4-tert-butyl-N-{1-[6-methoxy-3-(4-methoxyphenyl)-4-oxo-3,4-dihydroquinazolin-2-yl]ethyl}-N-methylbenzenesulfonamide], for which the EC50 is around 300 nM and the Emax is around 190%.
For `Cc1ccc(-n2c(C(C)N(C)S(=O)(=O)c3ccc(C(C)(C)C)cc3)nc3ccc(-c4cccs4)cc3c2=O)cc1` (stereo not shown) the same measures were around 600 nM and around 110%.

Source of the values: patent publication US8748440B2 (Exelixis, Inc., priority 2002, dated 2014).
